Bridge positions count the residues as written; N and C are the ends. Ends that are not written are not given here.
System: patients with chronic idiopathic constipation (CIC)
Assay: Second phase 3 CIC trial: change from baseline in CSBMs/week
Assay type: in vivo, human
Conditions: All Randomized (includes Duplicate Patients)
[1] = 3 mg, overall average estimate across the 12-week treatment period

With “Asn^1-Asp^2-Glu^3-Cys^4-Glu^5-Leu^6-Cys^7-Val^8-Asn^9-Val^10-Ala^11-Cys^12-Thr^13-Gly^14-Cys^15-Leu^16 (NDECELCVNVACTGCL; disulfide 4-12, 7-15) [Plecanatide, uroguanylin analogue, guanylate cyclase-C agonist; (C4:C12, C7:C15) bicycle peptide]” the “Change from Baseline in CSBMs, Difference from Placebo” value (“Change … Difference from Placebo” for short) (3 mg, Post-Treatment Week 13) was 0.43 CSBMs/week, the “Change from Baseline in CSBMs, LS Mean (SE)” value (“Change from Baseline … (SE)” below) (3 mg, Post-Treatment Week 13) was 1.91 (0.131) CSBMs/week and the “Change from Baseline in CSBMs, Mean (SD)” value (3 mg, Post-Treatment Week 13) was 1.87 (2.717) CSBMs/week. For the same substance, the “Change … Difference from Placebo” value (3 mg, Post-Treatment Week 14) was 0.40 CSBMs/week, the “Change from Baseline … (SE)” value (3 mg, Post-Treatment Week 14) was 1.78 (0.133) CSBMs/week and the “Change from Baseline in CSBMs, Mean (SD)” value (3 mg, Post-Treatment Week 14) was 1.75 (2.596) CSBMs/week. The “Change … Difference from Placebo” value (3 mg, Week 1) was 0.90 CSBMs/week, the “Change from Baseline … (SE)” value (3 mg, Week 1) was 1.72 (0.147) CSBMs/week and the “Change from Baseline in CSBMs, Mean (SD)” value (3 mg, Week 1) was 1.75 (2.737) CSBMs/week. The “Change … Difference from Placebo” value (3 mg, Week 2) was 0.87 CSBMs/week, the “Change from Baseline … (SE)” value (3 mg, Week 2) was 1.83 (0.147) CSBMs/week and the “Change from Baseline in CSBMs, Mean (SD)” value (3 mg, Week 2) was 1.82 (2.956) CSBMs/week. The “Change … Difference from Placebo” value (3 mg, Week 3) was 0.77 CSBMs/week, the “Change from Baseline … (SE)” value (3 mg, Week 3) was 1.94 (0.147) CSBMs/week and the “Change from Baseline in CSBMs, Mean (SD)” value (3 mg, Week 3) was 1.94 (3.084) CSBMs/week. The “Change … Difference from Placebo” value (3 mg, Week 4) was 0.95 CSBMs/week, the “Change from Baseline … (SE)” value (3 mg, Week 4) was 2.17 (0.148) CSBMs/week and the “Change from Baseline in CSBMs, Mean (SD)” value (3 mg, Week 4) was 2.20 (3.352) CSBMs/week. The “Change … Difference from Placebo” value (3 mg, Week 5) was 0.87 CSBMs/week, the “Change from Baseline … (SE)” value (3 mg, Week 5) was 2.30 (0.149) CSBMs/week and the “Change … Difference from Placebo” value (3 mg, Week 6) was 1.00 CSBMs/week. The “Change from Baseline … (SE)” value (3 mg, Week 6) was 2.30 (0.149) CSBMs/week, the “Change … Difference from Placebo” value (3 mg, Week 7) was 0.82 CSBMs/week and the “Change from Baseline … (SE)” value (3 mg, Week 7) was 2.28 (0.150) CSBMs/week. The “Change … Difference from Placebo” value (3 mg, Week 8) was 1.01 CSBMs/week, the “Change from Baseline … (SE)” value (3 mg, Week 8) was 2.49 (0.150) CSBMs/week and the “Change … Difference from Placebo” value (3 mg, Week 9) was 0.93 CSBMs/week. The “Change from Baseline … (SE)” value (3 mg, Week 9) was 2.46 (0.150) CSBMs/week, the “Change … Difference from Placebo” value (3 mg, Week 10) was 0.84 CSBMs/week and the “Change from Baseline … (SE)” value (3 mg, Week 10) was 2.46 (0.150) CSBMs/week. The “Change … Difference from Placebo” value (3 mg, Week 11) was 0.96 CSBMs/week, the “Change from Baseline … (SE)” value (3 mg, Week 11) was 2.53 (0.151) CSBMs/week and the “Change … Difference from Placebo” value (3 mg, Week 12) was 0.95 CSBMs/week. For the same substance, the “Change from Baseline … (SE)” value (3 mg, Week 12) was 2.58 (0.151) CSBMs/week, the “Change … Difference from Placebo” value [1] was 0.91 CSBMs/week and the “Change from Baseline … (SE)” value [1] was 2.25 (0.129) CSBMs/week. For the same substance, the “Change … Difference from Placebo” value (6 mg, Post-Treatment Week 13) was 0.16 CSBMs/week, the “Change from Baseline … (SE)” value (6 mg, Post-Treatment Week 13) was 1.64 (0.130) CSBMs/week and the “Change from Baseline in CSBMs, Mean (SD)” value (6 mg, Post-Treatment Week 13) was 1.59 (2.376) CSBMs/week. The “Change … Difference from Placebo” value (6 mg, Post-Treatment Week 14) was 0.30 CSBMs/week, the “Change from Baseline … (SE)” value (6 mg, Post-Treatment Week 14) was 1.67 (0.133) CSBMs/week and the “Change from Baseline in CSBMs, Mean (SD)” value (6 mg, Post-Treatment Week 14) was 1.62 (2.588) CSBMs/week. For the same substance, the “Change … Difference from Placebo” value (6 mg, Week 1) was 0.88 CSBMs/week, the “Change from Baseline … (SE)” value (6 mg, Week 1) was 1.70 (0.146) CSBMs/week and the “Change from Baseline in CSBMs, Mean (SD)” value (6 mg, Week 1) was 1.71 (2.870) CSBMs/week. For the same substance, the “Change … Difference from Placebo” value (6 mg, Week 2) was 0.85 CSBMs/week, the “Change from Baseline … (SE)” value (6 mg, Week 2) was 1.81 (0.146) CSBMs/week and the “Change from Baseline in CSBMs, Mean (SD)” value (6 mg, Week 2) was 1.83 (3.118) CSBMs/week. The “Change … Difference from Placebo” value (6 mg, Week 3) was 0.65 CSBMs/week, the “Change from Baseline … (SE)” value (6 mg, Week 3) was 1.81 (0.147) CSBMs/week and the “Change from Baseline in CSBMs, Mean (SD)” value (6 mg, Week 3) was 1.83 (2.927) CSBMs/week. The “Change … Difference from Placebo” value (6 mg, Week 4) was 0.80 CSBMs/week, the “Change from Baseline … (SE)” value (6 mg, Week 4) was 2.02 (0.147) CSBMs/week and the “Change … Difference from Placebo” value (6 mg, Week 5) was 0.50 CSBMs/week. For the same substance, the “Change from Baseline … (SE)” value (6 mg, Week 5) was 1.93 (0.147) CSBMs/week, the “Change … Difference from Placebo” value (6 mg, Week 6) was 0.91 CSBMs/week and the “Change from Baseline … (SE)” value (6 mg, Week 6) was 2.21 (0.148) CSBMs/week. For the same substance, the “Change … Difference from Placebo” value (6 mg, Week 7) was 0.81 CSBMs/week, the “Change from Baseline … (SE)” value (6 mg, Week 7) was 2.27 (0.148) CSBMs/week and the “Change … Difference from Placebo” value (6 mg, Week 8) was 0.81 CSBMs/week. The “Change from Baseline … (SE)” value (6 mg, Week 8) was 2.29 (0.148) CSBMs/week, the “Change … Difference from Placebo” value (6 mg, Week 9) was 0.81 CSBMs/week and the “Change from Baseline … (SE)” value (6 mg, Week 9) was 2.34 (0.149) CSBMs/week. For the same substance, the “Change … Difference from Placebo” value (6 mg, Week 10) was 0.85 CSBMs/week, the “Change from Baseline … (SE)” value (6 mg, Week 10) was 2.47 (0.149) CSBMs/week and the “Change … Difference from Placebo” value (6 mg, Week 11) was 0.83 CSBMs/week. The “Change from Baseline … (SE)” value (6 mg, Week 11) was 2.40 (0.149) CSBMs/week, the “Change … Difference from Placebo” value (6 mg, Week 12) was 0.86 CSBMs/week and the “Change from Baseline … (SE)” value (6 mg, Week 12) was 2.49 (0.150) CSBMs/week. For the same substance, the “Change … Difference from Placebo” value (6 mg, overall average estimate across the 12-week treatment period) was 0.80 CSBMs/week.
